Reference: patent US20010012846A1, “Quinoline-4-carboxamide derivatives as NK-2 and NK-3 receptor antagonists” (priority 1997, published 2001)

Legend:
[1] = molecular target: T1, human neurokinin-3 receptor (Homo sapiens, UniProt P29371); test: Binding affinity to human NK-3 receptor expressed in CHO cells (inhibition of [125I]-[Me-Phe7]-NKB or [3H]-Senktide binding); conditions: human neurokinin-3 receptor expressed in CHO cell lines; read-out: Binding affinity, Ki (nM) hNK-3-CHO
T1 construct: expressed in transfected cells; host or cells: CHO
T1 sequence (P29371 1-465): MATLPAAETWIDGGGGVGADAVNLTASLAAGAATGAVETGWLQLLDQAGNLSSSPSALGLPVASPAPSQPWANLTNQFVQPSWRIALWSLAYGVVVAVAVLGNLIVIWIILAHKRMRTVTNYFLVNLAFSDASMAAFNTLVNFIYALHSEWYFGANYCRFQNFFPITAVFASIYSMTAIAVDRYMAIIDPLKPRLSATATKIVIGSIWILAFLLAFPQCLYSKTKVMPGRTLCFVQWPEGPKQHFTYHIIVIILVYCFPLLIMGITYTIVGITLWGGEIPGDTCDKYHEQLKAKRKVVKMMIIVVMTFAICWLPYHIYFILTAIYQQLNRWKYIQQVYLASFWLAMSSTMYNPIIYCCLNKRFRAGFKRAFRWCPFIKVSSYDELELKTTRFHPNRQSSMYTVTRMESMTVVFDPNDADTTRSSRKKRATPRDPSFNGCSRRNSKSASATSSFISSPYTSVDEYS
Experimental: The activity of the compounds of the present invention, as NK3 ligands, is determined by their ability to inhibit the binding of the radiolabelled NK3 ligands, [^125I]-[Me-Phe^7]-NKB or [^3H]-Senktide, to guinea-pig and human NK3 receptors (Renzetti et al, 1991, Neuropeptide, 18, 104-114; Buell et al, 1992, FEBS, 299(1), 90-95; Chung et al, 1994, Biochem. Biophys. Res. Commun., 198(3), 967-972).
The binding assays utilized allow the determination of the concentration of the individual compound required to reduce by 50% the [^125I]-[Me-Phe^7]-NKB and [^3H]-Senktide specific binding to NK3 receptor in equilibrium conditions (IC50).
Binding assays provide for each compound tested a mean IC50 value of 2-5 separate experiments performed in duplicate or triplicate. […] The NK3-antagonist activity of the compounds of the present invention is determined by their ability to inhibit senktide-induced contraction of the guinea-pig ileum (Maggi et al, 1990, Br. J. Pharmacol., 101, 996-1000) and rabbit isolated iris sphincter muscle (Hall et al., 1991, Eur. J. Pharmacol., 199, 9-14) and human NK3 receptors-mediated Ca^++ mobilization (Mochizuki et al, 1994, J. Biol. Chem., 269, 9651-9658). Guinea-pig and rabbit in-vitro functional assays provide for each compound tested a mean KB value of 3-8 separate experiments, where KB is the concentration of the individual compound required to produce a 2-fold rightward shift in the concentration-response curve of senktide. Human receptor functional assay allows the determination of the concentration of the individual compound required to reduce by 50% (IC50 values) the Ca^++ mobilization induced by the agonist NKB. In this assay, the compounds of the present invention behave as antagonists.

[2] = molecular target: T2, human neurokinin-2 receptor (Homo sapiens, UniProt P21452); test: Binding affinity to human NK-2 receptor expressed in CHO cells (inhibition of [125I]-NKA or [3H]-NKA binding); conditions: human neurokinin-2 receptor expressed in CHO cell lines; read-out: Binding affinity, Ki (nM) hNK-2-CHO
T2 construct: expressed in transfected cells; host or cells: CHO
T2 sequence (P21452 1-398): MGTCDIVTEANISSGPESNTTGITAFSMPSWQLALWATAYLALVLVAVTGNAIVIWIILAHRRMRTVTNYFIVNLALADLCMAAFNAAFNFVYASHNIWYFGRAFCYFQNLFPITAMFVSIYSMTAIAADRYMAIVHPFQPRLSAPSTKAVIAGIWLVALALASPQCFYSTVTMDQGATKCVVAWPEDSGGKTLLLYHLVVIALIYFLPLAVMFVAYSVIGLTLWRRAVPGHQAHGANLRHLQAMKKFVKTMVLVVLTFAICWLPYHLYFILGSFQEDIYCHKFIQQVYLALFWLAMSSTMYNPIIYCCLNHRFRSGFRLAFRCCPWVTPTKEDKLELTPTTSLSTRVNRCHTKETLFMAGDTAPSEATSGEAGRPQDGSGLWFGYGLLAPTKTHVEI
Experimental: The activity of the compounds of the present invention, as NK-2 ligands, is determined by their ability to inhibit the binding of the radiolabelled NK-2 ligands, [^125I]-NKA or [^3H]-NKA, to human NK-2 receptors (Aharony et al, 1992, Neuropeptide, 23, 121-130).
The binding assays utilized allow the determination of the concentration of the individual compound required to reduce by 50% the [^125I]-NKA and [^3H]-NKA specific binding to NK2 receptor in equilibrium conditions (IC50).
Binding assays provide for each compound tested a mean IC50 value of 2-5 separate experiments performed in duplicate or triplicate. […] The NK-2-antagonist activity of the compounds of the present invention is determined by their ability to inhibit human NK-2 receptor-mediated Ca^++ mobilization (Mochizuki et al, 1994, J. Biol. Chem., 269, 9651-9658). Human receptor functional assay allows the determination of the concentration of the individual compound required to reduce by 50% (IC50 values) the Ca^++ mobilization induced by the agonist NKA. In this assay, the compounds of the present invention behave as antagonists.

Structure (SMILES)	Ki [1]	Ki [2]	melting point
CC[C@H](NC(=O)c1c(CCCCN2CCN(c3ccccc3)CC2)c(-c2ccccc2)nc2ccccc12)c1ccccc1 [Example 14]	1.1 nM	22.2 nM	151 to 153 °C
CC[C@H](NC(=O)c1c(CCN2CCN(c3ccc(C)cc3)CC2)c(-c2ccccc2)nc2ccccc12)c1ccccc1 [Example 29]	2.5 nM	35.3 nM	93 to 96 °C
CC(C)[C@H](NC(=O)c1c(CN(C)C)c(-c2ccccc2)nc2ccccc12)c1ccccc1 [Example 41]	3.3 nM	56.7 nM	117 to 120 °C

Compounds with a lower Ki [1], results first:

Ki [1]	Ki [2]	melting point	Structure (SMILES)
1 nM	1.2 nM	125 to 130 °C	CC(C)[C@H](NC(=O)c1c(CN2CCN(C(C)C)CC2)c(-c2ccccc2)nc2ccccc12)c1ccccc1 [Example 43]
0.9 nM	73.2 nM	83 °C (dec.)	CC[C@H](NC(=O)c1c(CN2CCC[C@@H]2CO)c(-c2ccccc2)nc2ccccc12)c1ccccc1 [Example 5]
0.8 nM	0.9 nM	158 to 160 °C	CC[C@H](NC(=O)c1c(CN2CCN(CCc3ccccc3)CC2)c(-c2ccccc2)nc2ccccc12)c1ccccc1 [Example 37]
